Like-named read-outs stand apart in the source and are kept apart here.
Type: physicochemical
Method: This Example studies the solubility and stability of acyclovir in various topical excipients. Table 1 and Table 2 below indicate the various excipients that solubility was tested in and stability of acyclovir in these excipients, respectively. [table]

- Saturated solubility of Acyclovir (pH 4): 0.10 (0.10-0.10) % w/w
- Saturated solubility of Acyclovir (pH 6): 0.10 (0.09-0.10) % w/w
SMILES: Nc1nc2c(ncn2COCCO)c(=O)[nH]1 [Acyclovir]

Source: patent US11246872B2, “Topical acyclovir formulations and uses thereof” (priority 2019, dated 2022)
